US20120315303A1, “METHODS AND INTRAVASCULAR TREATMENT DEVICES USING PACLITAXEL FOR TREATMENT OF ATHEROSCLEROSIS” (Medtronic Vascular, Inc., priority 2011, published 2012)

Columns and labels:
Assay type in all cases: cell-based
PEDF = assay: qRT-PCR PEDF expression in drug-treated, inflammatory cocktail stimulated SFA smooth muscle cells; conditions: quiescent SFA smooth muscle cells stimulated with FBS, TGF Beta and IL1beta, FIG. 14C
Description: (§1) FIG. 14 depicts differential effect of paclitaxel versus the Limus family of drugs on expression of cell cycle, proliferation and ECM target genes in SFA smooth muscle cells. Quiescent SFA smooth muscle cells were treated with of Paclitaxel, Zotarolimus or Sirolimus then stimulated with inflammatory cocktail consisting of FBS, TGF Beta and IL1beta. Relative gene expression levels were determined by qRT-PCR for each drug treated arm as calibrated against the unstimulated baseline control for (A) BTG2, (B) KLF4, (C) PEDF, (D) Endothelin-1, (E) Thrombospondin-1, and (F) Thrombospondin-3.
(§2) Since the limus drugs have been known to affect the signaling via their effect on cell cycle inhibitors (CDKN1A and CDKN1B), we next studied their effects on the pertinent proliferative disease targets identified in this study. Specifically, we looked at BTG2, KLF4 and PEDF (FIGS. 14A, 14B, and 14C, respectively). […] The limus drugs, sirolimus and zotarolimus induced the expression of BTG2, KLF4 cell cycle inhibitors, but not of the proliferation PEDF inhibitor, which are previously unknown actions for these drugs.

SFA smooth muscle cells = assay: Actin and Ki67 staining of drug-exposed SMCs (cellular morphology); conditions: SMCs fixed and stained with Actin and Ki67; FIG. 13B
Description: (§3) FIG. 13 depicts effects of paclitaxel on cellular morphology, gene and protein expression. (A and B) SFA smooth muscle cells from normal donor tissue were treated with Paclitaxel, Everolimus or Sirolimus. Gene expression levels were determined by qRT-PCR for each drug arm calibrated against unstimulated control for (A) CDKN1A and (C) CTGF. (B) SMCs were exposed to Sirolimus or Paclitaxel, fixed and stained with Actin (red) and Ki67 (green). (D) SFA derived smooth muscle cells were treated with Paclitaxel, Everolimus or Sirolimus then stimulated with Colchicinne (CTGF a) or Angiotensin II (CTGF b). Protein levels were detected by western blot using antibodies against CTGF and beta actin. One representative blot of three replicates shown.
(§4) Obtaining samples from SFA arteries allowed us to generate SFA derived-smooth muscle cells and to examine the expression of genes of interest as ide12tified in the disease atherectomy samples. In particularly we investigated the transcriptional response to anti-proliferative drugs, e.g. paclitaxel and drugs from the limus family such as sirolimus, everolimus or zotarolimus. These drugs are currently employed in combination devices indicated for the treatment of coronary and peripheral disease, including drug eluting stents and drug eluting balloons. […]

Endothelin-1 = assay: qRT-PCR Endothelin-1 expression in drug-treated, inflammatory cocktail stimulated SFA smooth muscle cells; conditions: quiescent SFA smooth muscle cells stimulated with FBS, TGF Beta and IL1beta, FIG. 14D
Description: as §1
(§5) In a similar manner, the expression of Thrombospondin-1 and Thrombospondin-3 is inhibited by paciltaxel but not by sirolimus and zotarolimus. Taken together the data with regards to the differential effects of commercially employed, anti-proliferative drugs, such as paciltaxel and drugs of the limus family, on the expression of SFA disease target genes can highlight/point to wards the most beneficial therapeutic mode of application and treatment.

KLF4 = assay: qRT-PCR KLF4 expression in drug-treated, inflammatory cocktail stimulated SFA smooth muscle cells; conditions: quiescent SFA smooth muscle cells stimulated with FBS, TGF Beta and IL1beta, FIG. 14B
Description: as §1, §2

Thrombospondin-1 = assay: qRT-PCR Thrombospondin-1 expression in drug-treated, inflammatory cocktail stimulated SFA smooth muscle cells; conditions: quiescent SFA smooth muscle cells stimulated with FBS, TGF Beta and IL1beta, FIG. 14E
Description: as §1, §5

BTG2 = assay: qRT-PCR BTG2 expression in drug-treated, inflammatory cocktail stimulated SFA smooth muscle cells; conditions: quiescent SFA smooth muscle cells stimulated with FBS, TGF Beta and IL1beta, FIG. 14A
Description: as §1, §2

Cathepsin S = assay: In vitro Cathepsin S expression
CTGF [1] = assay: Western blot of CTGF protein in drug-treated SFA derived smooth muscle cells; conditions: SFA derived smooth muscle cells stimulated with Colchicinne or Angiotensin II, FIG. 13D
Description: as §3, §4

CTGF [2] = assay: qRT-PCR CTGF gene expression in drug-treated SFA smooth muscle cells; conditions: qRT-PCR calibrated against unstimulated control, FIG. 13C
Description: as §3, §4

Thrombospondin-3 = assay: qRT-PCR Thrombospondin-3 expression in drug-treated, inflammatory cocktail stimulated SFA smooth muscle cells; conditions: quiescent SFA smooth muscle cells stimulated with FBS, TGF Beta and IL1beta, FIG. 14F
Description: as §1, §5

CDKN1A = assay: qRT-PCR CDKN1A gene expression in drug-treated SFA smooth muscle cells; conditions: SFA smooth muscle cells from normal donor tissue; qRT-PCR calibrated against unstimulated control; FIG. 13A
Description: as §3, §4

Structure (SMILES) | PEDF gene expression (PEDF) | effect on cellular cytoskeleton / morphology (SFA smooth muscle cells) | Endothelin-1 gene expression (Endothelin-1; listed as paciltaxel) | Endothelin-1 gene expression (Endothelin-1; listed as paclitexel) | KLF4 gene expression (KLF4) | Thrombospondin-1 gene expression (Thrombospondin-1; listed as paciltaxel) | Thrombospondin-1 gene expression (Thrombospondin-1; listed as paclitexel) | BTG2 gene expression (BTG2) | Cathepsin S expression (Cathepsin S) | CTGF protein levels (CTGF [1]) | CTGF gene expression (CTGF [2]) | CTGF gene expression (CTGF [2]; listed as paclitexel) | Thrombospondin-3 gene expression (Thrombospondin-3; listed as paciltaxel) | Thrombospondin-3 gene expression (Thrombospondin-3; listed as paclitexel) | CDKN1A gene expression (CDKN1A) | Endothelin-1 gene expression (Endothelin-1)
CC(=O)O[C@H]1C(=O)[C@@]2(C)[C@H]([C@H](OC(=O)c3ccccc3)[C@]3(O)C[C@H](OC(=O)[C@H](O)[C@@H](NC(=O)c4ccccc4)c4ccccc4)C(C)=C1C3(C)C)[C@]1(OC(C)=O)CO[C@@H]1C[C@@H]2O (relative stereo) [Paclitaxel, (1S,2S,3R,4S,7R,9S,10S,12R,15S)-4,12-Diacetoxy-15-{[(2R,3S)-3-(benzoylamino)-2-hydroxy-3-phenylpropanoyl]oxy}-1,9-dihydroxy-10,14,17,17-tetramethyl-11-oxo-6-oxatetracyclo[11.3.1.0˜3, 10˜.0˜4,7˜]heptadec-13-en-2-yl rel-benzoate] | up regulated | disrupting cellular cytoskeleton | slightly inhibited | substantially down regulated | up regulated | inhibited | substantially down regulated | up regulated | induces | reduced | substantial down regulation | substantially down regulated | inhibited | substantially down regulated | does not affect | 
CO[C@H]1C[C@@H]2CC[C@@H](C)[C@@](O)(O2)C(=O)C(=O)N2CCCC[C@H]2C(=O)O[C@H]([C@H](C)C[C@@H]2CC[C@@H](OCCO)[C@H](OC)C2)CC(=O)[C@H](C)/C=C(\C)[C@@H](O)[C@@H](OC)C(=O)[C@H](C)C[C@H](C)/C=C/C=C/C=C/1C [everolimus] |  |  |  |  |  |  |  |  |  |  |  |  |  |  | up regulating | 
CO[C@H]1C[C@@H]2CC[C@@H](C)[C@@](O)(O2)C(=O)C(=O)N2CCCC[C@H]2C(=O)O[C@H]([C@H](C)C[C@@H]2CC[C@H](n3cnnn3)[C@H](OC)C2)CC(=O)[C@H](C)/C=C(\C)[C@@H](O)[C@@H](OC)C(=O)[C@H](C)C[C@H](C)/C=C/C=C/C=C/1C [zotarolimus] |  |  |  |  | induced |  |  | induced |  |  |  |  |  |  |  | substantially upregulated
